Results published in the NIST ThermoML archive (doi:10.1021/je400423u).
± gives the expanded uncertainty stated by the source.

Assays:
[1] = 101 kPa, Liquid; for viscosity: Falling or rolling sphere viscometry; for mass density: Vibrating tube method
[2] = xn = mol fraction of the nth substance listed; settings: 101 kPa, Liquid, x1 = 1; for viscosity: Falling or rolling sphere viscometry; for mass density: Vibrating tube method

SMILES | viscosity ([1]; 308.15 K) [mPa·s] | mass density ([1]; 308.15 K) [kg/m3] | viscosity ([1]; 313.15 K) [mPa·s] | mass density ([1]; 313.15 K) [kg/m3] | viscosity ([1]; 318.15 K) [mPa·s] | mass density ([1]; 318.15 K) [kg/m3] | viscosity ([1]; 323.15 K) [mPa·s] | mass density ([1]; 323.15 K) [kg/m3] | mass density ([1]; 328.15 K) [kg/m3] | mass density ([1]; 333.15 K) [kg/m3] | mass density ([1]; 338.15 K) [kg/m3] | mass density ([1]; 343.15 K) [kg/m3] | other results
CC(C)CO [2-methyl-1-propanol] | 2.382 ± 0.019 | 790.12 ± 0.12 | 2.116 ± 0.017 | 786.12 ± 0.12 | 1.861 ± 0.015 | 782.06 ± 0.12 | 1.602 ± 0.013 | 777.93 ± 0.12 | 773.73 ± 0.12 | 769.44 ± 0.13 | 765.07 ± 0.13 | 760.61 ± 0.13 | 
CC(C)(C)O [2-methylpropan-2-ol] | 2.589 ± 0.02 | 770.36 ± 0.13 | 2.089 ± 0.016 | 765.07 ± 0.13 | 1.69 ± 0.013 | 759.67 ± 0.13 | 1.409 ± 0.011 | 754.19 ± 0.13 | 748.62 ± 0.13 | 742.95 ± 0.14 | 737.19 ± 0.14 | 731.31 ± 0.14 | 
CCC(C)O (stereo not given) [butan-2-ol] | 2.128 ± 0.017 | 794.05 ± 0.14 | 1.822 ± 0.015 | 789.65 ± 0.14 | 1.533 ± 0.013 | 785.15 ± 0.14 | 1.315 ± 0.011 | 780.55 ± 0.15 | 775.83 ± 0.15 | 770.99 ± 0.15 | 766.03 ± 0.15 | 760.96 ± 0.15 | viscosity ([1]; 333.15 K): 1.025 ± 0.0087 mPa·s
CCC(C)O (stereo not given) [butan-2-ol] + CC(C)CO |  |  |  |  |  |  |  |  |  |  |  |  | viscosity ([2]; 308.15 K): 2.128 ± 0.017 mPa·s; mass density ([2]; 308.15 K): 794.05 ± 0.14 kg/m3; viscosity ([2]; 313.15 K): 1.822 ± 0.015 mPa·s; mass density ([2]; 313.15 K): 789.65 ± 0.14 kg/m3; viscosity ([2]; 318.15 K): 1.533 ± 0.013 mPa·s; mass density ([2]; 318.15 K): 785.15 ± 0.14 kg/m3; viscosity ([2]; 323.15 K): 1.315 ± 0.011 mPa·s; mass density ([2]; 323.15 K): 780.55 ± 0.15 kg/m3; mass density ([2]; 328.15 K): 775.83 ± 0.15 kg/m3; viscosity ([2]; 333.15 K): 1.025 ± 0.0087 mPa·s; mass density ([2]; 333.15 K): 770.99 ± 0.15 kg/m3; mass density ([2]; 338.15 K): 766.03 ± 0.15 kg/m3; mass density ([2]; 343.15 K): 760.96 ± 0.15 kg/m3
